# Patent publication US20240400604A1, “NUCLEOSIDE TRIPHOSPHATE PHOTOAFFINITY PROBE, METHOD FOR PREPARING SAME, AND APPLICATIONS THEREOF” (SHANDONG UNIVERSITY, priority 2023, published 2024)
# What was measured:
# [1] = tested on: GTP-binding proteins in HEK 293T cell lysates; test: In-gel fluorescence imaging of HEK 293T cell lysate labeled with the GTP probes
# Protocol: Appropriate amount cells were incubated on ice for 30 min in 1% lysis buffer (1% Triton X-100, 50 mM HEPES (pH 7.4), 150 mM NaCl, supplemented with phosphatase inhibitor A, phosphatase inhibitor B, and protease inhibitor right before use) at 5-10 times the cell volume. Vortexing for 5 seconds every 10 minutes. The cell lysates were centrifuged at 12,000 rpm at 4° C. for 30 min, and the supernatants were passed through an Amersham NAP-5 column to remove endogenous nucleosides. The proteins were quantified using a Bradford protein assay kit. Approximately 100 μg protein was diluted with 0.1% lysis buffer (0.1% Triton X-100, 50 mM HEPES, 150 mM sodium chloride). To the solution was added 1 mM magnesium chloride, the GTP probe and competitors to designated concentrations. The final volume for the reaction was 100 μL and the final protein concentration was […]. After incubated on ice, the solution was irradiated with 365-nm UV light for 30 min. To the solution were added freshly prepared tris-(2-carboxyethyl)phosphine (TCEP) until its concentration reached 1 mM, and a CuAAC reaction mixture to reach a final concentration of 1 mM CuSO4, 0.1 mM tris[(1-benzyl-1H-1,2,3-triazol-4-yl)methyl]amine (TBTA), and 0.1 mM rhodamine β-PEG3-azide. The mixture was incubated at room temperature for 2 hrs and then precipitated in a solution of chloroform: methanol: water (4:3:1, v/v). After washing with cold methanol and air dried, the protein pellet was dissolved in 30 μL 4% SDS buffer (4% SDS, 50 mM HEPES (pH 7.4), 150 mM NaCl, 50 mM Trolamine). The protein concentration was determined using a BCA protein assay kit. A solution of approximately 20 μg proteins was added 4×loading buffer (0.25M Trometamol, pH=6.8, 4% SDS, 40% Glycerol, 0.02% bromophenol blue, add 200 μL 2-Mercaptoethanol to 800 μL buffer right before use), boiled at 95° C. for 5 min and loaded onto an SDS-PAGE gel (4% stacking gel, 10% separating gel). Then perform SDS-PAGE separation at a constant voltage of 90 V for about 110 minutes. At the end of electrophoresis, cut the separation gel and imaged with an Amersham Imager 600 (GE Healthcare) at 520 nm. The gel was then stained with Coomassie Brilliant Blue staining solution (0.1% Coomassie brilliant blue, 10% acetic acid, 50% methanol) for 30 min and destained with destaining solution (10% acetic acid, 30% methanol) to remove background color.
# [2] = tested on: GTP-binding proteins in HEK 293T cell lysates; test: Proteomic LC-MS/MS analysis of HEK 293T cell lysate labeled with GTP probes; parameters: species or system human
# Protocol: Under optimized conditions, HEK 293T cell lysates were labeled using the GTP photoaffinity probes. Peptide samples were prepared via the On-Beads enzymatic digestion method for proteomic study. Approximately 1 mg of proteins was labeled with 0.1 mM GTP probe and irradiated with 365-nm UV light for 30 min. To the solution were added freshly prepared tris-(2-carboxyethyl)phosphine (TCEP) until its concentration reached 1 mM, and a CuAAC reaction mixture to reach a final concentration of 1 mM CuSO4, 0.1 mM tris[(1-benzyl-1H-1,2,3-triazol-4-yl)methyl]amine (TBTA), and 0.5 mM biotin-PEG3-azide (for GTP-O probe labeled samples), or 0.5 mM biotin-DADPS-azide (for GTP-N probe labeled samples). The mixture was vortexed at room temperature for 2 hours and then precipitated in ice-cold methanol overnight.
# The precipitated proteins were dissolved in 100 μL 4% SDS buffer (4% SDS, 150 mM NaCl, 50 mM HEPES, pH=7.4), and diluted with 900 μL SDS-free HEPES buffer (150 mM NaCl, 50 mM HEPES, pH=7.4). High-capacity streptavidin beads (50 μL per sample) were washed three times with 20 times volume of wash buffer (150 mM sodium chloride, 50 mM HEPES, pH=7.4) before adding to the samples. After incubation on a rotary shaker at room temperature for 2 hours, non-specifically bound proteins were washed away in a centrifugal filtration column using 1× PBS containing 1% SDS, 10× PBS, 1× PBS, water, and 50 mM ammonium bicarbonate solution with 8 M urea, each wash using 1 mL of solution for five times. The beads were transferred to a centrifuge tube using 50 mM ammonium bicarbonate solution containing 8 M urea and resuspended with 500 μL of this solution. The disulfide bonds were reduced by adding 20 mM TCEP and incubating at 37° C. for 1 hour, and then alkylated with 50 mM iodacetamide at room temperature in the dark for 30 minutes. After centrifugation at 3000 rpm for 2 minutes, the supernatant was gently removed. The beads were washed with 25 mM ammonium bicarbonate three times, resuspended in 100 μL 25 mM ammonium bicarbonate, and incubated with 1 μg of MS-grade trypsin (1 μg/μL) at 37° C. for 18 hrs.
# The beads were washed with 200 μL of 25 mM ammonium bicarbonate solution, then centrifuged at 12000 rpm for 2 minutes to collect the supernatant. The procedure was repeated 6 times, and the supernatants were combined to obtain sample 1 (peptides without probe modification). For GTP-O probe labeled samples, the beads were resuspended in 200 μL of 70% acetonitrile solution containing 1% trifluoroacetic acid, vortexed for 5 minutes, then centrifuged at 12000 rpm for 2 minutes to collect the supernatant. The procedure was repeated 5 times, and the supernatants were combined to obtain sample 2 (containing probe-modified peptides). For GTP-N probe labeled samples, the beads were resuspended in 100 μL of 10% formic acid, incubated on a rotary shaker at room temperature for 30 minutes, then centrifuged at 12000 rpm for 2 minutes to collect the supernatant. The procedure was repeated 3 times, and the supernatants were combined. Trifluoroacetic acid was added to a final concentration of 1%, and incubated at 37° C. for 30 minutes to obtain sample 2. The peptide solutions were dried with a centrifugal concentrator and desalted using C18 tips, then frozen at −80° C. until LC-MS/MS detection. Samples were dissolved in 20 μL of pure water, 4 μL of sample 1 and 8 μL of sample 2 were injected for analysis.
# An EASY-nLC 1200 liquid chromatography coupled with a Q-Exactive Orbitrap mass spectrometer was employed for LC-MS/MS analysis. A homemade C18 capillary column (inner diameter 75 μm, column length 18 cm) packed with Reprosil-Pur120 C18-AQ (Dr. maisch, particle size […]) was utilized as the separation column. The precolumn (inner diameter 150 μm, column length 4 cm) was packed with Reprosil-Pur120 C18-AQ (Dr. maisch, particle size 5 μm,). The mobile phase A was 0.1% formic acid, while mobile phase B was 0.1% formic acid in 80% acetonitrile, and the flow rate was 300 nL/min. […]
# [3] = Stability analysis of the probes under three pH conditions with HPLC; assay type: physicochemical; conditions: acidic condition with trifluoroacetic acid (pH=3), 0.4 mM probe, 37° C.
# Protocol: Probes were incubated with 0.4 mM final concentration in different buffer at 37° C. for different time, and 10 μL of solution was taken out at each time point for HPLC analysis. A analytical column (Welch, Ultimate XB-C18, 5 μm, 4.6×250 mm) was used for the analysis, and untreated probes were used as controls. The mobile phase A was 50 mM […] (TEAA) buffer (pH=8), the mobile phase B was 50 mM TEAA in 30% ACN, the flow rate was 1 mL/min, the detection wavelength was 252 nm, and the column temperature was 30° C. Gradient elution conditions were as follows: 0-5 minutes, 5% B; 5-10 minutes, 5-30% B; 10-30 minutes, 30-40% B; 30-35 minutes, 40-100% B; 35-40 minutes, 100% B; 45-50 minutes, 5% B.
# [4] = tested on: ATP-binding proteins, including kinases; test: Staurosporine competitive ATP-N probe labeling of cell lysates, LC-MS/MS; parameters: species or system human; conditions: staurosporine at 1×, 10×, 20× concentration of the ATP-N probe; one biological replicate
# Protocol: The preparation of mass spectrometry samples was the same as in Section 1.3 of Example 7, except that ATP was replaced with different concentrations of staurosporine.
# Prior to probe labeling, cell lysates were pre-incubated on ice with staurosporine at 1×, 10×, and 20× concentration of the ATP-N probe, and compared with the control group without staurosporine treatment. Potential target proteins of kinase inhibitors were screened based on the abundance ratio between the competition group and the control group through LC-MS/MS analysis. Theoretically, as the concentration of the inhibitor increases, the labeling efficiency of its target proteins should gradually decrease. Therefore, proteins were screened based on their abundance ratios ([…]), identifying proteins whose detected abundance decreased with increasing inhibitor concentrations. Proteins with lower confidence were filtered out, leaving proteins that met the criteria for further analysis. Most proteins with reduced labeling efficiency after staurosporine treatment were ATP-binding proteins, including kinases, and this trend increased with higher inhibitor concentrations. […] Since the data presented in this example represent only one biological replicate, there may be some errors. Typically, using the average values and p-values from three biological replicates would yield more reliable results.
# [5] = tested on: ATP-binding proteins in HEK 293T cell lysates; test: In-gel fluorescence imaging of HEK 293T cell lysates labeled with the ATP-N probe; conditions: FIG. 23a, in-gel fluorescence
# [6] = tested on: ATP-binding proteins in HEK 293T cell lysates; test: Proteomic LC-MS/MS (LFQ) analysis of HEK 293T cell lysates labeled with the ATP-N probe, ATP competition; parameters: species or system human
# Protocol: (§1) 1 mg of cell lysate was labeled with 10 μM ATP-N probe. The subsequent steps were the same as in Section 1.3 of Example 3.
# (§2) The C18 pre-column (Thermo Fisher, 164564-CMD, 100 μm×2 cm) and analytical column (Thermo Fisher, 164941, 75 μm×25 cm) used in the LC-MS/MS analysis were commercially available. The liquid chromatography (Vanquish Neo, Thermo Fisher) settings were as follows: Solvent A was 98% H2O with 0.1% FA, and Solvent B was 98% ACN with 0.1% FA. The flow rate was 300 nL/min, with the elution gradient as follows: 0 minutes, 2% B; 5 minutes, 26% B; 127 minutes, 36% B; 137 minutes, 72% B; 142 minutes, 80% B; and 143-153 minutes, 80% B. The mass spectrometer (Orbitrap Exploris 480, Thermo Fisher) settings were: full MS scan in positive ion mode, electrospray ion source voltage 1.9 kV, ion transfer tube temperature 320° C., scan m/z range 350-1500, resolution of 120000, AGC target 300%, maximum injection time 25 ms. For dd-MS^2, resolution was 15000, AGC target 50%, maximum injection time was automatically selected, and the cycle time for MS scanning was set to 3 s. DDA mode was used for data acquisition and the data collection time was 0-142 minutes.
# The obtained MS raw files were analyzed using Proteome Discoverer 2.5 software, and searched against the Uniprot human protein database (as of November 2022, total proteins: 20401). Enzyme specificity was set to trypsin, cysteine carbamidomethylation was set as a fixed modification, and methionine oxidation and N-terminal acetylation were set as variable modifications.
# HEK 293T cell lysates were labeled with 10 μM ATP-N probe. Labeled proteins were enriched with streptavidin beads, and digested with trypsin to prepare peptide samples for LC-MS/MS analysis. Adding 100 μM ATP as the competitor during probe labeling, the labeling of ATP-binding proteins would be interfered. Compared with the probe-labeling group without competitors, more specific ATP-binding proteins could be identified with label-free quantitative (LFQ) analysis.
# [7] = target: T1, N-acetylglucosamine kinase (NAGK) (Homo sapiens, UniProt Q9UJ70); test: Identification of ATP-N probe-modified site by LC-MS/MS; conditions: near ATP-binding pocket, FIG. 26a
# T1 construct: in the samples of HEK 293T cell lysates labeled with the ATP-N probe; endogenous in cells; host or cells: HEK 293T cell lysate
# T1 sequence (Q9UJ70 whole entry): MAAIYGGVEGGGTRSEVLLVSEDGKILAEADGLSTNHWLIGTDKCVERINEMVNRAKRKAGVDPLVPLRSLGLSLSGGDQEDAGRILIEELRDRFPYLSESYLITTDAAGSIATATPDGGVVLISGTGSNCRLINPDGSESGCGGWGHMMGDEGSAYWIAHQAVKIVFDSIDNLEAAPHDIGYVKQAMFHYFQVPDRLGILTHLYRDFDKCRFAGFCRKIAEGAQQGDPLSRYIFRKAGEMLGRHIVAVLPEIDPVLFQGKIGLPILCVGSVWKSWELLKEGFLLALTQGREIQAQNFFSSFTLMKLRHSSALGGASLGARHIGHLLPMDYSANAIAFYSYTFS
# Protocol: as §1, §2
# (§3) The obtained MS raw files were analyzed using Proteome Discoverer 2.5 software, and searched against the Uniprot human protein database (as of November 2022, total proteins: 20401). […]
# VRK1 = target: T2, VRK1 (Homo sapiens, UniProt Q99986); test: as above; conditions: close to ATP-binding pocket, FIG. 26b
# T2 construct: in the samples of HEK 293T cell lysates labeled with the ATP-N probe; endogenous in cells; host or cells: HEK 293T cell lysate
# T2 sequence (Q99986 1-396): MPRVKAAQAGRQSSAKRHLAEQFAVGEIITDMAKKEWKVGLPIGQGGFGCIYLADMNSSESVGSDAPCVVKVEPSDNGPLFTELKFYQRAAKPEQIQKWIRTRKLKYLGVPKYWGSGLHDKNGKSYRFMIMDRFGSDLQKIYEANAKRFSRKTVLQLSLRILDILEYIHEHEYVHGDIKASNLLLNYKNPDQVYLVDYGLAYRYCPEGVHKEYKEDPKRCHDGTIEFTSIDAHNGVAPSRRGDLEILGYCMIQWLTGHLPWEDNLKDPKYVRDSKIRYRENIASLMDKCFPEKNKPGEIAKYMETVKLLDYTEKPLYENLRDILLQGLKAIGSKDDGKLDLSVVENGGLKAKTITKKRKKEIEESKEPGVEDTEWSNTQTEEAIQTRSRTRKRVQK
# Protocol: as §1, §2, §3
# [8] = three biological replicates, 0.1 mM probe, control probe = GTP-ctrl probe
# [9] = GO-MF analysis of screened proteins
structure (smiles),measurement,setting,value
C#CCCC1(CCNP(=O)(O)OP(=O)(O)OP(=O)(O)OC[C@H]2O[C@@H](n3cnc4c(=O)[nH]c(N)nc43)C(O)[C@H]2O)N=N1 (stereo partly shown) [GTP-N probe],protein labeling (in-gel fluorescence),"[1]; 0.1 mM probe, 1 mM MgCl2, FIG. 10a",stronger protein labeling compared to the GTP-O probe
same,probe concentration at which cell lysate is effectively labeled,"[1]; FIG. 9a (GTP-N probe), 365 nm UV, in-gel fluorescence",50 µM
same,probe-modified sites on labeled proteins,[2]; LC-MS/MS of sample 2 (probe-modified peptides),several modified peptides of GTP-binding proteins were identified
same,selectivity for annotated GTP-binding proteins,"[2]; competition with GTP at 10 times probe concentration, LFQ, three biological replicates",better selectivity than the GTP-O probe
same,GTP-binding proteins identified,[2]; [8],115
same,total proteins identified,[2]; [8],2461
same,time after which probe decomposed,[3],0.5 h
"CN[C@@H]1C[C@H]2O[C@@](C)([C@@H]1OC)n1c3ccccc3c3c4c(c5c6ccccc6n2c5c31)C(=O)NC4 [staurosporine, Staurosporine]",proteins with significantly reduced ATP-N probe labeling in the competition group,[4],several known staurosporine targets were identified
C#CCCC1(CCNP(=O)(O)OP(=O)(O)OP(=O)(O)OC[C@H]2O[C@@H](n3cnc4c(N)ncnc43)C(O)[C@H]2O)N=N1 (stereo partly shown) [ATP-N probe],lowest probe concentration showing clear fluorescent bands,[5],1 µM
same,proteins with significantly decreased intensity in the ATP competition group,"[6]; 10 μM probe, 100 μM ATP, all three replicates, ratio>2, p-value<0.05",More than 160
same,"of these, kinases",[6]; [9],around 78
same,"of these, previously annotated ATP-binding proteins",[6]; [9],approximately 129
same,share of annotated ATP-binding proteins among all screened proteins,[6]; [9],over 80%
same,"proteins with significantly decreased intensity in the competition group, probe-modified peptides","[6]; quantitative analysis of probe-modified peptides, all three replicates, ratio>2, p-value<0.05",About 44
same,probe-modified residue,[7],Glu16
same,probe-labeled residue,VRK1,Glu73
